From patent publication US20140004122A1, “METHODS FOR TREATING OR PREVENTING CHOLESTEROL RELATED DISORDERS” (AMGEN INC., priority 2011, published 2014)

System: hypercholesterolemic subjects with a 10 year Framingham risk score of 10% or less
Assay: 12 week monotherapy dose-ranging study (Example 24)
Type: in vivo, human
Procedure: Ezetimibe was not blinded. The end-of-study visit and the last estimation of lipids was at week 12 for subjects on Q4W IP schedule or on ezetimibe and week 14 for subjects on Q2W IP schedule.
Males and females, ≧18 to ≦75 years of age, were eligible for this study. Fasting LDL-C was ≧100 mg/dL (2.6 mmol/L) and <190 mg/dL (4.9 mmol/L) and fasting triglycerides ≦400 mg/dL (4.5 mmol/L) by central laboratory at screening.
The primary endpoint was the percent change from baseline in LDL-C at week 12. Secondary endpoints included percent changes in apolipoprotein B (ApoB), lipoprotein (a) (Lp(a)), and in the ratio of total cholesterol to high-density lipoprotein (HDL)-C. Tolerability and safety were also evaluated.

Structure (SMILES): O=C1[C@H](CC[C@H](O)c2ccc(F)cc2)[C@@H](c2ccc(O)cc2)N1c1ccc(F)cc1 [Ezetimibe, ezetimibe, reference compound]
- percent change from baseline in LDL-C (week 12, final data, ezetimibe QD PO): 14%
- Least squares mean percent change from baseline (%) in LDL-C (week 12, Ezetimibe QD (N = 45)): −14.26%
